# Measured values reported in US20260365670A1, “EGFR INHIBITORS AND USES THEREOF” (DIZAL (JIANGSU) PHARMACEUTICAL CO., LTD., priority 2022, published 2026).
# pIC50: −log10 of the molar value. Where two headings read alike, the source gives them in different places.
# How the values were obtained:
# EGFR wild type = target: T1, EGFR wild type (Homo sapiens, UniProt P00533); test: Inhibition of EGFR wild type biochemical enzymatic activity (HTRF); details: EGFR WT, 1 mM ATP, 1 h, room temperature, read-out: IC50 (nM) @WT
# T1 construct: purchased Carna Bio
# Outline: (§1)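 Read-out is the HTRF 665/615 nm ratio (excitation 320 nm), taken as proportional to kinase activity after a 1 h room-temperature reaction with 1 mM ATP and 1 μM biotinylated TK substrate. IC50 values derive from four-parameter logistic fitting.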
# EGFR L858R = target: T2, EGFR L858R (Homo sapiens, UniProt P00533, L858R); test: Inhibition of EGFR L858R biochemical enzymatic activity (HTRF); details: 1 mM ATP, 1 h, room temperature, read-out: IC50 (nM) @L858R
# T2 construct: purchased Carna Bio
# Outline: as §1
# EGFR L858R/T790M = target: T3, EGFR L858R/T790M (Homo sapiens, UniProt P00533, L858R/T790M); test: Inhibition of EGFR L858R/T790M biochemical enzymatic activity (HTRF); details: EGFR L858R-T790M, 1 mM ATP, 1 h, room temperature, read-out: IC50 (nM) @L858R-T790M
# T3 construct: purchased Carna Bio
# Outline: as §1
# EGFR Exon19Del = target: T4, EGFR Exon19Del (Homo sapiens, UniProt P00533, DEL746-750); test: Inhibition of EGFR Exon19Del biochemical enzymatic activity (HTRF); details: EGFR Del19, 1 mM ATP, 1 h, room temperature, read-out: IC50 @Del19
# T4 construct: purchased Carna Bio
# Outline: as §1
# EGFR Exon19Del/T790M = target: T5, EGFR Exon19Del/T790M (Homo sapiens, UniProt P00533, DEL746-750/T790M); test: Inhibition of EGFR Exon19Del/T790M biochemical enzymatic activity (HTRF); details: EGFR Del19-T790M, 1 mM ATP, 1 h, room temperature, read-out: IC50 (nM) @Del19-T790M
# T5 construct: purchased Carna Bio
# Outline: as §1
# EGFR[T790M/C797S/L858R] = target: T6, EGFR[T790M/C797S/L858R] (Homo sapiens, UniProt P00533, C797S/L858R/T790M); test: Inhibition of EGFR[T790M/C797S/L858R] biochemical enzymatic activity (HTRF); details: EGFR T790M-C797S-L858R, 1 mM ATP, 1 h, room temperature, read-out: IC50 (nM) @T790M- C797S - L858R
# T6 construct: purchased Carna Bio
# Outline: as §1
# [1] = target: T7, EGFR[T790M/C797S/d746-750] (Homo sapiens, UniProt P00533, C797S/DEL746-750/T790M); test: Inhibition of EGFR[T790M/C797S/d746-750] biochemical enzymatic activity (HTRF); details: EGFR T790M-C797S-Del19, 1 mM ATP, 1 h, room temperature, read-out: IC50 (nM) @T790M - C797S - Del19
# T7 construct: purchased Carna Bio
# Outline: as §1
# EGFR (d746-750 C797S) = target: T8, EGFR (d746-750 C797S) (Homo sapiens, UniProt P00533, C797S/DEL746-750); test: Inhibition of EGFR (d746-750 C797S) biochemical enzymatic activity (HTRF); details: EGFR Del19-C797S, 1 mM ATP, 1 h, room temperature, read-out: IC50 (nM) @Del19-C797S
# T8 construct: purchased signalchem
# Outline: as §1
# EGFR (C797S L858R) = target: T9, EGFR (C797S L858R) (Homo sapiens, UniProt P00533, C797S/L858R); test: Inhibition of EGFR (C797S L858R) biochemical enzymatic activity (HTRF); details: EGFR L858-C797S, 1 mM ATP, 1 h, room temperature, read-out: IC50 (nM) @L858-C797S
# T9 construct: purchased signalchem
# Outline: as §1
# [2] = system: Ba/F3 cells expressing EGFR mutations; test: Cell proliferation assay, Ba/F3 cells expressing EGFR mutations (CellTiter-Glo, 72 hours); type: cell-based; details: CellTiter-Glo
# Outline: (§2)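 Cells are exposed to graded compound concentrations after overnight plating, using 500 PC-9 or 5000 Ba/F3 per well. Baseline-subtracted viability is compared with vehicle to give percent proliferation, then GI50.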
# PC-9 = test: Cell proliferation assay, PC-9 cells (CellTiter-Glo, 72 hours); type: cell-based; details: PC9 cells, CellTiter-Glo, read-out: PC9 GI50
# Outline: as §2
# A-431 = test: Cell proliferation GI50, A-431 cells (Table 6); type: cell-based
# [3] = BaF3 cells, EGFR DEL19-C797S, read-out: DEL19-C797S/BaF3 GI50
# [4] = BaF3 cells, EGFR DEL19-T790-C797S, read-out: DEL19-T790-C797S/BaF3 GI50
# [5] = BaF3 cells, EGFR L858R, read-out: L858R/BaF3 GI50
# [6] = BaF3 cells, EGFR L858R-C797S, read-out: L858R-C797S/BaF3 GI50
# [7] = BaF3 cells, EGFR L858R-T790-C797S, read-out: L858R-T790-C797S/BaF3 GI50
# [8] = BaF3 cells, EGFR L858R-T790M, read-out: L858R-T790M/BaF3 GI50
# [9] = EGFR DEL19-T790M, read-out: DEL19-T790M GI50
# [10] = Mus musculus, BaF3, 72 h, BaF3 cells, EGFR DEL19-C797S, read-out: DEL19-C797S/BaF3 GI50
# [11] = Mus musculus, BaF3, 72 h, BaF3 cells, EGFR DEL19-T790-C797S, read-out: DEL19-T790-C797S/BaF3 GI50
# [12] = Mus musculus, BaF3, 72 h, BaF3 cells, EGFR L858R, read-out: L858R/BaF3 GI50
# [13] = Mus musculus, BaF3, 72 h, BaF3 cells, EGFR L858R-C797S, read-out: L858R-C797S/BaF3 GI50
# [14] = Mus musculus, BaF3, 72 h, BaF3 cells, EGFR L858R-T790-C797S, read-out: L858R-T790-C797S/BaF3 GI50
# [15] = Mus musculus, BaF3, 72 h, BaF3 cells, EGFR L858R-T790M, read-out: L858R-T790M/BaF3 GI50
# [16] = Mus musculus, BaF3, 72 h, EGFR DEL19-T790M, read-out: DEL19-T790M GI50
# [17] = Homo sapiens, A-431, A-431 cells
# T1 sequence (P00533 25-1210): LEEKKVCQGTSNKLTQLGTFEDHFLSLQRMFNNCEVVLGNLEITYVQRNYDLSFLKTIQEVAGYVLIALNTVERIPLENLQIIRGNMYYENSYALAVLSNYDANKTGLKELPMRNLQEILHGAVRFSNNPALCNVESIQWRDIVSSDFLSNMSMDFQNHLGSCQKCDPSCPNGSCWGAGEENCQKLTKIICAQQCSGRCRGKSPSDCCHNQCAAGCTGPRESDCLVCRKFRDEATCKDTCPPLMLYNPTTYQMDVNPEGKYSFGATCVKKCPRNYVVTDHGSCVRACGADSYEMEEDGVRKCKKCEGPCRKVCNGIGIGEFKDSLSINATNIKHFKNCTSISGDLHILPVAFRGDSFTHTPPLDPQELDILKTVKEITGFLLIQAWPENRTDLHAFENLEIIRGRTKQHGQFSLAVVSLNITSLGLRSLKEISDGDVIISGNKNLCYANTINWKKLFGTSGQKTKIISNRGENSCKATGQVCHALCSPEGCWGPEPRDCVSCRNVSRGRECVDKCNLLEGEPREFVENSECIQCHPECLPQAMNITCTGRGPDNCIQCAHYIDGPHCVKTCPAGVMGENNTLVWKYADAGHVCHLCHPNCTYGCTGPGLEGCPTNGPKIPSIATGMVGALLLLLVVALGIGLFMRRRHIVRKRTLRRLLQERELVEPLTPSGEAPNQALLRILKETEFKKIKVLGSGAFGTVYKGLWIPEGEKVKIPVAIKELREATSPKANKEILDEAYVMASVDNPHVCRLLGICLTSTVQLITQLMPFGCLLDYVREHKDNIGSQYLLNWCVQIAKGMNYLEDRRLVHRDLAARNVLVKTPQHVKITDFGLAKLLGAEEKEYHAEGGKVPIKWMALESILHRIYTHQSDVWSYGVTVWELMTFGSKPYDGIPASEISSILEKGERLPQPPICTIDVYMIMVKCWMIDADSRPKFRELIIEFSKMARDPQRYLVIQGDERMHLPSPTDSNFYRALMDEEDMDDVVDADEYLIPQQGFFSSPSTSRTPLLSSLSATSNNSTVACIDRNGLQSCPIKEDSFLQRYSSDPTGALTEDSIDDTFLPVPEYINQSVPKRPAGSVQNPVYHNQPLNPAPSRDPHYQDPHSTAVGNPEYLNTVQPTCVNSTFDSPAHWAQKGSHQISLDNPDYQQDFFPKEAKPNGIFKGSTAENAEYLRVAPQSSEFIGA
# T4 sequence (P00533 with tags, fused parts or gaps DEL746-750 limits assumed): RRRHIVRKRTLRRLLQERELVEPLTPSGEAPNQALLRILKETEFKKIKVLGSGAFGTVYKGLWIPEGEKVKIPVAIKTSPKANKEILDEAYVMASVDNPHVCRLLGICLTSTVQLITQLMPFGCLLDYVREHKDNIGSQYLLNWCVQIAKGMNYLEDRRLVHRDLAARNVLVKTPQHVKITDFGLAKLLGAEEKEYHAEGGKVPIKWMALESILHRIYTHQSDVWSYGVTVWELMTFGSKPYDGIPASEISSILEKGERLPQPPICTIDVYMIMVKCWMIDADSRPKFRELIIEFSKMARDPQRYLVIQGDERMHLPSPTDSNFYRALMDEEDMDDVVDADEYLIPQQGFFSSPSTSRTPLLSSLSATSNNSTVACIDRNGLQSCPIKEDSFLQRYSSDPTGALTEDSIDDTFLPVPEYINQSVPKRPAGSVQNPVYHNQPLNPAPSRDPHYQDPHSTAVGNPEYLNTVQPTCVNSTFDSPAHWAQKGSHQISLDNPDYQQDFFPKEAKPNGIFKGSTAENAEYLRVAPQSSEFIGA
# T6 sequence (P00533 25-1210 T790M/C797S/L858R): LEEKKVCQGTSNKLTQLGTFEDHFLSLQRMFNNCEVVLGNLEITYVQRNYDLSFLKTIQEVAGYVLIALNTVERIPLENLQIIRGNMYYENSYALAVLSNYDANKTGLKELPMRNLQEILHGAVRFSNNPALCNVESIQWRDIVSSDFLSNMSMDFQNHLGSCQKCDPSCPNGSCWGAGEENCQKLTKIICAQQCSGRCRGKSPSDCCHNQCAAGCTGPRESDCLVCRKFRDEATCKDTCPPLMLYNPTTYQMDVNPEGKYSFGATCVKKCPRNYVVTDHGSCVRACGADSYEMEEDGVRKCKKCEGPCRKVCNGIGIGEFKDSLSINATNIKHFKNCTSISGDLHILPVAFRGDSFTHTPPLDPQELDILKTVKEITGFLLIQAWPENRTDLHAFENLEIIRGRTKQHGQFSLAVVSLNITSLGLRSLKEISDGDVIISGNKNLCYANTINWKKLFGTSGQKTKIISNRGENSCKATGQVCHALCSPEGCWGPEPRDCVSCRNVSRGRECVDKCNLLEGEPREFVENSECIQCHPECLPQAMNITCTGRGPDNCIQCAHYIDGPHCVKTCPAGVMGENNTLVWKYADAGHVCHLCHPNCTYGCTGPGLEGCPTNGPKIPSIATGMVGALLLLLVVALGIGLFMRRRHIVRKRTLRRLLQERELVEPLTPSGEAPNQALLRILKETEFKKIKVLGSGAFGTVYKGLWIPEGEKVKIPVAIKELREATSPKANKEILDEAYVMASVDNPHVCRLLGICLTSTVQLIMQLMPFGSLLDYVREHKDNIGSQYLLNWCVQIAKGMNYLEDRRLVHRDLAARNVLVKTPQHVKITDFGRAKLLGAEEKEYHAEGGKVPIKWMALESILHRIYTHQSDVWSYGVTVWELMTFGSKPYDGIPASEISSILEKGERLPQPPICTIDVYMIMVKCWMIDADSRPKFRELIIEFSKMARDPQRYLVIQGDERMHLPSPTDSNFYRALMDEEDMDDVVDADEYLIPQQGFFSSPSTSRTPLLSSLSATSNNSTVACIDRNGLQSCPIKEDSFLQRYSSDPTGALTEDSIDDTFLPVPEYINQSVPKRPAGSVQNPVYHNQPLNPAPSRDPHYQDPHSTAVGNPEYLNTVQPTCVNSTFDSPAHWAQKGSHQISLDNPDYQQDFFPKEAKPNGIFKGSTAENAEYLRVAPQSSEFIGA
# T3 sequence (P00533 25-1210 T790M/L858R): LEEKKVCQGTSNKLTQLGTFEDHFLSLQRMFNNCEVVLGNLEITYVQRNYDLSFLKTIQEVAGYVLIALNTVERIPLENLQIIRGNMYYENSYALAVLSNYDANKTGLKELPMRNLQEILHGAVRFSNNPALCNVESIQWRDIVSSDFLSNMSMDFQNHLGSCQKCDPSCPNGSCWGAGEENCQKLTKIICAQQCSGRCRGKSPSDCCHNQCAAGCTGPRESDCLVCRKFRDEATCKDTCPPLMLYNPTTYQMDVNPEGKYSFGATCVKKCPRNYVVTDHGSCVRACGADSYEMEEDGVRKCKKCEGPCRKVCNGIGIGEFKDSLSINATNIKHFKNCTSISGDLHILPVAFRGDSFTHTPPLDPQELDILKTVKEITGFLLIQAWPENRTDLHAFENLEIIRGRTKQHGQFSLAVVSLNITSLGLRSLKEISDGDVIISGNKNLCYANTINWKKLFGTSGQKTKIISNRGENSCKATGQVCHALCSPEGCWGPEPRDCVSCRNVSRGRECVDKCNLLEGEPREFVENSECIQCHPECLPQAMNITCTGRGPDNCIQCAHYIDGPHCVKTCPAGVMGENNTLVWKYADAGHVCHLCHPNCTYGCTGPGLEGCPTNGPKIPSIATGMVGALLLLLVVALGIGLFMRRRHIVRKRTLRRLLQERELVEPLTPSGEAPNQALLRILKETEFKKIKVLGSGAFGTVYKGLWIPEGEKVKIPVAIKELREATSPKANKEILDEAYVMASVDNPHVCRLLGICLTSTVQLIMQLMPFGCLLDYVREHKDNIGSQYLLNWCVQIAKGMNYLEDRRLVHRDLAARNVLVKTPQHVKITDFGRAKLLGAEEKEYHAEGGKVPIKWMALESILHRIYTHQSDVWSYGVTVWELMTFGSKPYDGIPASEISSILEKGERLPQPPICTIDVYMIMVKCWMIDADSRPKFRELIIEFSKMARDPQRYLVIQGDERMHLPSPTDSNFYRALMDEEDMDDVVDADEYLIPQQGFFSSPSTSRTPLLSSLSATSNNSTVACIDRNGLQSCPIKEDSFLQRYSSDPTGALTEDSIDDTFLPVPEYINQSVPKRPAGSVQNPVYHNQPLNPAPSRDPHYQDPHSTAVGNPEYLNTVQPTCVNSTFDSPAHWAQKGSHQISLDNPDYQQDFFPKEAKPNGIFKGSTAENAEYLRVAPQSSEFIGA
# T5 sequence (P00533 with tags, fused parts or gaps DEL746-750/T790M limits assumed): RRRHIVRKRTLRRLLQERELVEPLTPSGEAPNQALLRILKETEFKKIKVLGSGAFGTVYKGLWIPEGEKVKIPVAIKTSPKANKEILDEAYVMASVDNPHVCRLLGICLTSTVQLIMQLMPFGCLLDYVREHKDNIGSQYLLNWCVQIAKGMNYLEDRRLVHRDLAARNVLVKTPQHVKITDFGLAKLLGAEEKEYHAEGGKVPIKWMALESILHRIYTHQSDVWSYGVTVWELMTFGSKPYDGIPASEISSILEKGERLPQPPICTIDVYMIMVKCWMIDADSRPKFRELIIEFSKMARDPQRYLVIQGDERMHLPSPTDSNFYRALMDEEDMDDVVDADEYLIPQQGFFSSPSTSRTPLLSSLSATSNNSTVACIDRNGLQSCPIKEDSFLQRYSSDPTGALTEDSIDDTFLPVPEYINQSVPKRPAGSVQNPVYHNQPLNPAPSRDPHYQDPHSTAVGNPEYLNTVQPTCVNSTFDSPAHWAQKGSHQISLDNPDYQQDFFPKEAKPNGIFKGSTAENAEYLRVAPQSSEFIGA
SMILES,IC50 (EGFR wild type),IC50 (EGFR L858R),IC50 (EGFR L858R/T790M),pIC50 (EGFR Exon19Del),IC50 (EGFR Exon19Del/T790M),IC50 (EGFR[T790M/C797S/L858R]),IC50 [1],IC50 (EGFR (d746-750 C797S)),IC50 (EGFR (C797S L858R)),"GI50 [2, 3]","GI50 [2, 4]","GI50 [2, 5]","GI50 [2, 6]","GI50 [2, 7]","GI50 [2, 8]","GI50 [2, 9]",GI50 (PC-9),GI50 (A-431; A-431 cells),"GI50 [2, 10]","GI50 [2, 11]",further results
"CN1CCCC12CN(c1ccc3nc4n(c3c1)C13CCC(CN(CCOc5c(cnn5C)-c5cc(cn(C)c5=O)C(=O)N4)C1)C3)C2 (single isomer, unassigned) [Example A76B]",206 nM,39 nM,7 nM,8.38,4.9 nM,6.9 nM,4.4 nM,3.5 nM,27 nM,0.00078 µM,0.012 µM,0.013 µM,0.0076 µM,0.034 µM,0.039 µM,0.012 µM,0.023 µM,1.64 µM,,,
C[C@@H]1CCCOc2c(cnn2C)-c2cc(cn(C)c2=O)C(=O)Nc2nc3ccc(N4CCC(N(C)C)C(F)(F)C4)cc3n2C1 (stereo partly drawn) [Example A51],1830 nM,94 nM,33 nM,7.89,12 nM,24 nM,12 nM,4.7 nM,31 nM,,,,,,,,,,0.0076 µM,0.035 µM,"GI50 [2, 12]: 0.046 µM; GI50 [2, 13]: 0.038 µM; GI50 [2, 14]: 0.036 µM; GI50 [2, 15]: 0.065 µM; GI50 [2, 16]: 0.065 µM; GI50 (PC-9; Homo sapiens, PC-9, 72 h): 0.062 µM; GI50 (A-431; [17]): 1.04 µM"
"CN(C)C1CN(c2ccc3nc4n(c3c2)C23CCC(CN(CCOc5c(cnn5C)-c5cc(cn(C)c5=O)C(=O)N4)C2)C3)CC1F (single isomer, unassigned) [Example A84A, 15,21-Dimethyl-5-[4-fluoro-3-(N,N-dimethylamino)pyrrolidinyl]-23-oxa-2,9,11,15,20,21,26-heptaazaheptacyclo[24.4.1.1^{1,28}.1^{13,17}.0^{2,10}.0^{3,8}.0^{18,22}]tritriaconta-3,5,7,9,13,17(33),18(22),19-octaene-12,16-dione]",> 5000 nM,830 nM,> 5000 nM,6.65,> 5000 nM,> 5000 nM,> 5000 nM,258 nM,1180 nM,0.098 µM,0.232 µM,0.311 µM,0.19 µM,0.362 µM,0.402 µM,0.171 µM,0.214 µM,3.99 µM,,,
"CN1CCC2(C1)CN(c1ccc3nc4n(c3c1)C13CCC(CN(CCOc5c(cnn5C)-c5cc(cn(C)c5=O)C(=O)N4)C1)C3)C2 (single isomer, unassigned) [Example A78A]",> 5000 nM,2040 nM,> 5000 nM,6.29,> 5000 nM,> 5000 nM,3750 nM,494 nM,> 5000 nM,0.102 µM,0.269 µM,0.329 µM,0.157 µM,0.402 µM,0.38 µM,0.25 µM,0.249 µM,3.05 µM,,,
CCN1CCN(c2ccc3nc4n(c3c2)C[C@H](C)CCCOc2c(cnn2C)-c2cc(cn(C)c2=O)C(=O)N4)CC1 [Example A49],694 nM,45 nM,8.1 nM,8.26,6 nM,5.1 nM,4.9 nM,2.8 nM,16 nM,,,,,,,,,,0.002 µM,0.012 µM,"GI50 [2, 12]: 0.0057 µM; GI50 [2, 13]: 0.007 µM; GI50 [2, 14]: 0.0053 µM; GI50 [2, 15]: 0.072 µM; GI50 [2, 16]: 0.018 µM; GI50 (PC-9; Homo sapiens, PC-9, 72 h): 0.012 µM; GI50 (A-431; [17]): 0.251 µM"
C[C@@H]1CCCOc2c(cnn2C)-c2cc(cn(C)c2=O)C(=O)Nc2nc3ccc(N4CCNCC4)cc3n2C1 [Example A55],103 nM,16 nM,8.4 nM,8.43,3.7 nM,7.2 nM,4.4 nM,1.8 nM,8.4 nM,,,,,,,,,,0.0046 µM,0.025 µM,"GI50 [2, 12]: 0.026 µM; GI50 [2, 13]: 0.031 µM; GI50 [2, 14]: 0.029 µM; GI50 [2, 15]: 0.052 µM; GI50 [2, 16]: 0.036 µM; GI50 (PC-9; Homo sapiens, PC-9, 72 h): 0.051 µM; GI50 (A-431; [17]): 1.28 µM"
